The values below come from publication PMC4819177, “The rational search for selective anticancer derivatives of the peptide Trichogin GA IV: a multi-technique biophysical approach” (Scientific Reports, 2016).

Data set [1] deals with T67 human glioma cell line. In kind it is cell-based. As to conditions: MTT, 24 h exposure; average error about ±2 μM. The procedure: (§1) We studied the effect of TG and its analogues on normal (HDF) and transformed (T67 and HeLa) cells. The cellular viability was assessed after 24 hours of exposure to the peptides by the MTT assay (Table 1).
(§2) Culture media, foetal bovine serum (FBS) and antibiotics were purchased from Carlo Erba Dasit Group. The T67 human glioma cell line was derived by Lauro et al.[49] from a World Health Organization (WHO) Grade III gemistocytic astrocytoma. Human dermal fibroblasts (HDF) were obtained by ATCC. HDF were cultured in Fibroblast Basal Medium (ATCC) supplemented with 10% FBS. T67 and HeLa cells were cultured in Dulbecco’s modified Eagle’s medium (MMedical) supplemented with 10% FBS, 100 UI/ml penicillin, 100 μg/ml streptomycin, and 40 μg/ml gentamycin, and kept in a 5% CO2 atmosphere at 37 °C, with saturating humidity. Cell viability and number were measured by trypan blue exclusion method.
(§3) Cytotoxicity of peptides was estimated using a MTT assay. All the chemicals used for this assay have been purchased by sigma Aldrich and used without further purification. T67, HeLa and HDF cells were seeded in 24-well plates at 1 × 10^5 cells/well. Experiments were performed after 24 h of incubation at 37 °C in 5% CO2. After this time cells were washed and treated for 24 h with different concentrations of peptides; the cells are then incubated for 60 mins with 300 μM of MTT in culture medium. The absorbance of each well was measured at 450 nm with a spectrofluorometer (Wallac Victor multilabel counter; Perkin-Elmer Inc., Boston, MA, USA). Data are reported as the mean ± standard deviation of at least three independent experiments.

The subject of data set [2] is human dermal fibroblasts (HDF). It is filed as cell-based. As to conditions: MTT, 24 h exposure; average error about ±2 μM. As to the method:
as §1, §2, §3

Data set [3] has as its system HeLa cells. It is filed as cell-based, human. As to conditions: MTT, 24 h exposure; average error about ±2 μM. As to the method:
as §1, §2, §3

Data set [4] has as its system T67, HeLa and HDF cells. The data set is described as follows: MTT cytotoxicity assay, summary over the three cell lines. In kind it is cell-based, human. As to conditions: 24 h. The procedure: as §1, §3
A short description of data set [5]: Dynamic light scattering of POPC SUV with peptides. In kind it is physicochemical. As to conditions: POPC SUV 2 mM, P:L 1:100. The procedure: The dimension of the SUV prepared by sonication was verified by dynamic light scattering (DLS). Additionally we checked if the peptides at a P:L ratio 1:100, the ratio used for EPR experiments, alter the dimension of the SUV. The experiments were perfomed on POPC SUV (2 mM) with and without peptides. We chose a toxic peptide, [Arg^2] TG, and a non-toxic peptide, [Leu^4] TG. The average diameter of the SUV in this preparation is about 21±6 nm (when counting the size distribution by numer).

Data set [6] relates to HeLa cells. In words: Fluorescence microscopy of FITC-labelled peptides. As to conditions: 0.5 μM, 3 hours; for state of the cells / membrane lysis: bright field; for cellular localization of the fluorescent label: green fluorescence. It is filed as cell-based, human. As to the method:
HeLa cells were treated for 3 hours with 0.5 μM of TG and [Lys^6] […] The cells treated with [FITC^11] […] Conversely, treatment with [Lys^6, FITC^11] […] It has been shown that some AMP act not on the plasma membrane, but on the mitochondria.
HeLa cells were washed with PBS (NaCl 137 mM, KCl 2.7 mM, Na2HPO4 10 mM, KH2PO4 1.8 mM, pH 7.4), detached with 0.05% trypsin–EDTA solution and centrifuged for 3 min at 300 × g. The pellet was resuspended in DMEM medium and cells were counted by using trypan blue exclusion method. Then, 5 × 10^3 cells were seeded on custom chambers[58] with glass bottom, in 100 μL of complete DMEM medium and incubated at 37 °C in a humidified atmosphere with 5% CO2. After 24 h, cells were washed with PBS and incubated for 3 hours with […] of [FITC^11] TG and [Lys^6, FITC^11] TG dissolved in DMEM. After this time, cells were carefully washed with PBS, then 50 μL of PBS supplemented with calcium and magnesium (NaCl 137 mM, KCl 2.7 mM, Na2HPO4 10 mM, KH2PO4 1.8 mM, CaCl2 1 mM, MgCl2 0.5 mM, pH 7.4) was added to each chamber. Finally, chambers were mounted on the microscope stage for analysis. Micrographs were acquired on a Zeiss Axiovert 200 inverted microscope equipped with XBO xenon 75 W short arc lamp and a Photometrics Coolsnap FX CCD camera (Roper Scientific) with Metafluor Imaging Software version 6.1r6 (Universal Imaging Inc.) at λexc = 500 nm, λem = 545 nm.
We performed fluorescence microscopy experiments with rhodamine, which selectively stains mitochondria, to exclude that TG analogs penetrate inside the mitochondria and are localized only on the plasmatic membrane. Rhodamine staining is shown in FigureS5.B in red. The merged images of the experiments on [FITC^11]

Entries after “also recorded” stand apart in the source; their conditions may differ. Square brackets hold non-standard residues; d marks the D form. Peptide text beside a SMILES is read from it. * marks the point of attachment. TOAC = CC1(C)CC(N)(C(=O)O)CC(C)(C)N1[O]; Leu(ol) = CC(C)C[C@H](N)CO; Octanoyl = CCCCCCCC(=O)*; Api = NC1(C(=O)O)CCNCC1; Aib = CC(C)(N)C(=O)O

As a reminder, the EC50 is the concentration giving half of the maximal effect. In the case of `CCCCCCCC(=O)NC1(C(=O)N[C@@H](CCCNC(=N)N)C(=O)N[C@@H](CC(C)C)C(=O)NC(C)(C)C(=O)NCC(=O)NCC(=O)N[C@@H](CC(C)C)C(=O)NC(C)(C)C(=O)NCC(=O)N[C@H](C(=O)N[C@H](CO)CC(C)C)[C@@H](C)CC)CC(C)(C)N([O])C(C)(C)C1` [[TOAC^1, Arg^2] TG, Oct-XRLUGGLUGI-Lol] (Octanoyl-[TOAC]RL[Aib]GGL[Aib]GI[Leu(ol)]), the 50% effective concentration (EC50) in data set [1] amounted to 8 µM; in data set [2], 15 µM; in data set [3], 9 µM.
On to `CCCCCCCC(=O)NC1(C(=O)NCC(=O)N[C@@H](CC(C)C)C(=O)N[C@@H](CC(C)C)C(=O)NCC(=O)NCC(=O)N[C@@H](CC(C)C)C(=O)NC(C)(C)C(=O)NCC(=O)N[C@H](C(=O)N[C@H](CO)CC(C)C)[C@@H](C)CC)CC(C)(C)N([O])C(C)(C)C1` [[TOAC^1, Leu^4] TG, Oct-XGLLGGLUGI-Lol] (Octanoyl-[TOAC]GLLGGL[Aib]GI[Leu(ol)]), for which the “cytotoxicity / selectivity in words” value in data set [4] is listed as “no toxicity”.
As for `CCCCCCCC(=O)NC(C)(C)C(=O)NCC(=O)N[C@@H](CC(C)C)C(=O)NC(C)(C)C(=O)NCC(=O)N[C@@H](CCCCN)C(=O)N[C@@H](CC(C)C)C(=O)NC(C)(C)C(=O)NCC(=O)N[C@H](C(=O)N[C@H](CO)CC(C)C)[C@@H](C)CC` [[Lys^6] TG, Oct-UGLUGKLUGI-Lol], the half-maximal effective concentration (EC50) in data set [1] was determined as 4 µM; in data set [2], 2 µM; in data set [3], 2 µM.
With `CCCCCCCC(=O)NC1(C(=O)NCC(=O)N[C@@H](CC(C)C)C(=O)NC(C)(C)C(=O)NCC(=O)NCC(=O)N[C@@H](CC(C)C)C(=O)NC(C)(C)C(=O)N[C@@H](CCCNC(=N)N)C(=O)N[C@H](C(=O)N[C@H](CO)CC(C)C)[C@@H](C)CC)CC(C)(C)N([O])C(C)(C)C1` [[TOAC^1, Arg^9] TG, Oct-XGLUGGLURI-Lol] (Octanoyl-[TOAC]GL[Aib]GGL[Aib]RI[Leu(ol)]), the values for the EC50 in data set [1], in data set [2] and in data set [3] were 8 µM, 8 µM and 5 µM, respectively.
`CCCCCCCC(=O)NC(C)(C)C(=O)NCC(=O)N[C@@H](CC(C)C)C(=O)NC(C)(C)C(=O)NCC(=O)NCC(=O)N[C@@H](CC(C)C)C(=O)NC(C)(C)C(=O)NCC(=O)N[C@H](C(=O)N[C@H](CO)CC(C)C)[C@@H](C)CC` [TG, 1-Oct-Aib-Gly-Leu-Aib-Gly-Gly-Leu-Aib-Gly-Ile-Lol, reference compound] (Octanoyl-[Aib]GL[Aib]GGL[Aib]GI[Leu(ol)]): the values for the EC50 in data set [1], in data set [2] and in data set [3] were 2 µM, 4 µM and 8 µM, respectively.
With Oct-UGLLGGLUGI-Lol [[Leu^4] TG], in data set [1], the EC50 is above 20 µM. This molecule gave a concentration giving a half-maximal response (EC50) in data set [2] above 20 µM. This molecule had an EC50 in data set [3] above 20 µM. In data set [5], the “DLS Distribution by Number Peak 1, diameter” value worked out at 20 nm; the “DLS Distribution by Number Peak 1, fraction” value is reported as 100%; the “DLS Distribution by Volume Peak 1, diameter” value turned out to be 30 nm; the “DLS Distribution by Volume Peak 1, fraction” value was 96%. For the same molecule, in data set [5], the “DLS Distribution by Volume Peak 2, diameter” value is on record as 4993 nm; the “DLS Distribution by Volume Peak 2, fraction” value is given as 4%; the “effect of peptide on the dimension of the vesicles” value is recorded as “does not alter the dimension of the vesicles in a significant way”.
Take “Oct-UGLUGKLUGIL- FITC [[Lys^6, FITC^11] TG]”: in data set [6], the “state of the cells / membrane lysis” value was “severe membrane lysis” and the “cellular localization of the fluorescent label” value is given as “mainly located in the outer plasma membrane”.
Regarding `CCCCCCCC(=O)NC(C)(C)C(=O)NCC(=O)N[C@@H](CC(C)C)C(=O)NC(C)(C)C(=O)NCC(=O)NCC(=O)N[C@@H](CC(C)C)C(=O)NC1(C(=O)NCC(=O)N[C@H](C(=O)N[C@H](CO)CC(C)C)[C@@H](C)CC)CCNCC1` [[Api^8] TG, Oct-UGLUGGLZGI-Lol] (Octanoyl-[Aib]GL[Aib]GGL[Api]GI[Leu(ol)]), the “cytotoxicity / selectivity in words” value in data set [4] is reported as “selective cytotoxicity towards a cancer cell line”. Also, the EC50 in data set [2] and in data set [3] was above 20 µM each time.
In turn, `CCCCCCCC(=O)NC(C)(C)C(=O)N[C@@H](CCCNC(=N)N)C(=O)N[C@@H](CC(C)C)C(=O)NC(C)(C)C(=O)NCC(=O)NCC(=O)N[C@@H](CC(C)C)C(=O)NC(C)(C)C(=O)NCC(=O)N[C@H](C(=O)N[C@H](CO)CC(C)C)[C@@H](C)CC` [[Arg^2] TG, Oct-URLUGGLUGI-Lol] (Octanoyl-[Aib]RL[Aib]GGL[Aib]GI[Leu(ol)]) came in with an EC50 in data set [1] of 8 µM. The same molecule gave an EC50 in data set [2] of 8 µM. A half-maximal effect in data set [3] (EC50) was put at 4 µM. In data set [5], the “DLS Distribution by Number Peak 1, diameter” value is listed as 24 nm; the “DLS Distribution by Number Peak 1, fraction” value came to 100%; the “DLS Distribution by Volume Peak 1, diameter” value is listed as 28 nm; the “DLS Distribution by Volume Peak 1, fraction” value is reported as 92%. Also, in data set [5], the “DLS Distribution by Volume Peak 2, diameter” value was 5430 nm; the “DLS Distribution by Volume Peak 2, fraction” value turned out to be 3%; the “DLS Distribution by Volume Peak 3, diameter” value was determined as 135 nm; the “DLS Distribution by Volume Peak 3, fraction” value is listed as 5%. Also, the “effect of peptide on the dimension of the vesicles” value in data set [5] is reported as “does not alter the dimension of the vesicles in a significant way”.
Oct-UGLUGGLUGIL-FITC [[FITC^11] TG]: in data set [6], the “state of the cells / membrane lysis” value is listed as “keeps the cells intact; also recorded: largely intact” and the “cellular localization of the fluorescent label” value is “mainly located in the outer plasma membrane”. Besides, the “colocalization with rhodamine (mitochondria)” value in data set [6] (rhodamine staining) was “no significant colocalization”.
For the molecule `CCCCCCCC(=O)NC1(C(=O)NCC(=O)N[C@@H](CC(C)C)C(=O)NC(C)(C)C(=O)NCC(=O)N[C@@H](CCCCN)C(=O)N[C@@H](CC(C)C)C(=O)NC(C)(C)C(=O)NCC(=O)N[C@H](C(=O)N[C@H](CO)CC(C)C)[C@@H](C)CC)CC(C)(C)N([O])C(C)(C)C1` [[TOAC^1, Lys^6] TG, Oct-XGLUGKLUGI-Lol], the “cytotoxicity / selectivity in words” value in data set [4] is “most toxic peptide on all the cell lines”. The concentration giving a half-maximal response (EC50) came out at 1 µM in data set [1], 5 µM in data set [2] and 3 µM in data set [3].
For the molecule `CCCCCCCC(=O)NC1(C(=O)NCC(=O)N[C@@H](CC(C)C)C(=O)NC(C)(C)C(=O)N[C@@H](CCCCN)C(=O)N[C@@H](CCCCN)C(=O)N[C@@H](CC(C)C)C(=O)NC(C)(C)C(=O)NCC(=O)N[C@H](C(=O)N[C@H](CO)CC(C)C)[C@@H](C)CC)CC(C)(C)N([O])C(C)(C)C1` [[TOAC^1, Lys^5,6] TG, Oct-XGLUKKLUGI-Lol], the values for the half-maximal effective concentration (EC50) in data set [1], in data set [2] and in data set [3] were 10 µM, 15 µM and 6 µM, respectively.
Consider Oct-XGLUGGLLGI-Lol [[TOAC^1, Leu^8] TG], for which the EC50 in data set [1], in data set [2] and in data set [3] was above 20 µM in each case.
